# Where two headings read alike, the source gives them in different places.
# Columns and labels:
# [1] = tested on: HIV-1IIIB; assay: XTT cytoprotection assay, CEM-SS cells infected with HIV-1IIIB; format: cell-based; settings: Human immunodeficiency virus 1, 144 h, Table 1, 6 days, read-out: EC50 (50% cytoprotection), CEM-SS cells
# Method: (§1) The HIV cytoprotection assay has been previously described in Weislow, O, S. et al., J. Natl. Cancer Inst. 81, 577-86 (1989); Rice, W. G. et al., Antimicrob. Agents Chemother. 41, 419-26 (1997), and Rice, W. G. et al., Proc. Natl. Acad. Sci. USA 90, 9721-4 (1993). CEM-SS cells infected with HIV-1IIIB or monocyte-macrophages infected with HIVBaL were incubated with the compound for 6 days and antiviral activity determined by measurement of cell survival (cytoprotection) using XTT (2,3-bis(2-methoxy-4-nitro-5-sulfophenyl)-5-[(phenylamino)carbonyl]-2H-tetrazolium hydroxide) dye reduction. AZT was used as a positive control for all assays with each assay performed in duplicate with triplicate determinations per condition. Compound toxicity was measured the same way in uninfected CEM-SS cells. Effective antiviral concentrations providing 50% cytoprotection (EC50) and cellular growth inhibitory concentrations causing 50% cytotoxicity (IC50) were calculated.
# (§2) Three compounds were assayed for antiviral activity using the XTT cytoprotection assay in CEM-SS cells infected with HIV-1IIIB and in monocyte-macrophages infected with HIVBaL and assayed for virucidal activity. The compounds are compound 7a (invention), 8 (comparative), and 7f (comparative).
# [2] = Compound toxicity by XTT in uninfected CEM-SS cells; format: cell-based; settings: human; Table 1; uninfected CEM-SS cells, XTT; read-out: TC50, CEM-SS cells
# Method: as §1
# [3] = tested on: HIVBaL; assay: XTT cytoprotection assay, monocyte-macrophages infected with HIVBaL; format: cell-based, HIV; settings: for EC50: monocyte-macrophages infected with HIVBaL, XTT
# Method: as §1
# as §2, with “(comparative). The structure of compound 8 is as follows:” for “(comparative).”
# (§3) Four compounds along with a positive control were assayed for antiviral activity using the XTT cytoprotection assay as described in Example 4. The cells used were CEM-SS cells infected with HIV-1RF, monocyte-macrophages infected with HIVBaL, and peripheral blood mononuclear cells (PBMC) infected with HIV-1HT/92/599. The compounds are compound 8 (comparative), 7a (invention), 10 (invention), 11 (invention), and 12 (invention).
# [4] = Compound toxicity in monocyte-macrophages; format: cell-based; settings: human, monocyte-macrophages; Table 1; read-out: TC50, Monocytes-macrophages
# [5] = tested on: HIV-1IIIB; assay: Cell-free virus inactivation (virucidal) assay; format: cell-based; settings: for EC50: Human immunodeficiency virus 1, Table 1, HIV-1IIIB incubated with compound 2 h at 37° C., then added to CEM-SS cells
# Method: Cell-free virus inactivation assays were performed as previously described in Song, Y. et al., Bioorg. Med. Chem. 10, 1263-73 (2002). Briefly, HIV-1IIIB was incubated with three concentrations of each compound for 2 h at 37° C. and then pelleted at 4° C. for 90 minutes at 18,000×g. Following several washes with DPBS to remove unbound compound, the virus was resuspended in cell culture media and added to CEM-SS cells at a titer to yield 85-90% cell killing at day 6 post-infection.
# [6] = tested on: CEM-SS cells; assay: Compound toxicity by XTT in uninfected CEM-SS cells; format: cell-based; settings: Table 2; read-out: TC50, CEM-SS cells
# Method: as §1
# [7] = tested on: monocyte-macrophages; assay: Compound toxicity in monocyte-macrophages; format: cell-based; settings: Table 2; read-out: TC50, Monocyte/Macrophage
# [8] = tested on: HIV-1RF; assay: XTT cytoprotection assay, CEM-SS cells infected with HIV-1RF; format: cell-based; settings: Human immunodeficiency virus 1, Table 2, read-out: EC50 (50% cytoprotection), CEM-SS cells
# Method: as §1, §3
# [9] = tested on: HIV-1HT/92/599; assay: XTT cytoprotection assay, PBMC infected with HIV-1HT/92/599; format: cell-based; settings: Human immunodeficiency virus 1; Table 2; PBMC infected with HIV-1HT/92/599, XTT; read-out: EC50 (50% cytoprotection), PBMC
# Method: as §1, §3
# [10] = Compound toxicity in PBMC; format: cell-based; settings: human, peripheral blood mononuclear cells (PBMC); Table 2; read-out: TC50, PBMC
# Method: as §1, §3
# [11] = pH stability in buffers (RP-HPLC); format: physicochemical; settings: 250 μM; pH 5.0, 7.0, 9.0 buffers; 25° C., 30 days; FIG. 5
# Method: This example illustrates the pH stability of compound 7a. Compound 7a was dissolved in DMSO and diluted into the 100 mM sodium acetate buffer at pH 5.0 (shown in FIG. 5 as diamonds), 100 mM sodium phosphate buffer at pH 7.0 (shown in FIG. 5 as circles), and 100 mM Tris-HCl buffer at pH 9.0 (shown in FIG. 5 as squares) at a final compound concentration of 250 μM. The samples were incubated at 25° C. over the course of 30 days and the amount of intact compound was measured over time using RP-HPLC. The results are illustrated in FIG. 5.
# [12] = Stability in vaginal fluid simulant (RP-HPLC); format: physicochemical; settings: 400 μM; 25° C., 30 days; FIG. 6; compared with compound 8
# Method: The final concentration of the compounds was 400 μM. The samples were incubated at 25° C. over the course of 30 days and the amount of intact compound was measured over time using RP-HPLC. […] The results are illustrated in FIG. 6.
# [13] = Human plasma stability (RP-HPLC); format: in vitro ADME; settings: 20 μM in 50% human plasma in PBS, 37° C., 1 hour; FIG. 7
# Method: Compound 8 (comparative), compound 7a (invention), compound 10 (invention), compound 11 (invention), and compound 12 (invention) were dissolved in DMSO and diluted into 50% human plasma in PBS buffer at a final concentration of 20 μM. The samples were incubated at 37° C. for 1 hour and the amount of intact compound measured using RP-HPLC. The results are illustrated in FIG. 7.
# [14] = Human immunodeficiency virus 1, 144 h, Table 1, 6 days, read-out: EC50 (50% cytoprotection), Monocytes-macrophages
# [15] = Human immunodeficiency virus 1, Table 2, read-out: EC50 (50% cytoprotection), Monocyte/Macrophage
EC50 [1] [µM],"EC50 [3, 14] [µM]","EC50 [3, 15] [µM]",EC50 [8] [µM],EC50 [9] [µM],"pH stability, intact compound over time [11]","stability in vaginal fluid simulant, intact compound over time [12]","stability in human plasma, intact compound [13]",SMILES,CC50 at 6 days [2] [µM],activity in cytoprotection assay against infected monocytes-macrophages ([3]; as compared to compound 7a),CC50 at 6 days [4] [µM],EC50 [5] [µM],"activity in the antiviral assay against HIV-1IIIB ([5]; virucidal assay, as compared to compound 7a)",CC50 [6] [µM],CC50 [7] [µM],CC50 at 6 days [10] [µM]
34.9,> 100,,,,,,,NC(=O)CCNC(=O)c1ccccc1SCc1ccccc1 [Compound 7f],> 100,inactive,> 100,> 100,inactive,,,
0.2,0.6,0.62,0.2,4.06,most stable at acidic pH,significantly more stable,did not exhibit stability,"CC(C)C(=O)Oc1ccc(CSc2ccccc2C(=O)NCCC(N)=O)cc1 [Compound 7a, N-{2-[4-(isopropylcarbonyloxy)benzylthio]benzoyl}-β-alaninamide]",> 100,,> 100,9.8,,> 100,> 100,> 100
0.6,2,1.97,0.6,5.74,,,,CC(=O)Sc1ccccc1C(=O)NCCC(N)=O [Compound 8],> 100,,> 100,0.9,,> 100,> 100,> 100
